The values that follow are results of earlier work, collected in patent US20090265114A1, “Influenza virus neuraminidase crystal structure and their use thereof” (priority 2006, published 2009).

In series [1] the test system is Group-2 NAs with His-274->Tyr.
The test system of series [2] is Group-1 NAs with His-274->Tyr.
For series [3], the system named is Group-1 enzymes with Arg-292->Lys. Particulars: Group-1 enzymes compared with Group-2 NAs.

`CCOC(=O)C1=C[C@@H](OC(CC)CC)[C@H](NC(C)=O)[C@@H](N)C1` [oseltamivir]: in series [1], the “effect of the mutation His-274->Tyr on resistance against oseltamivir” value is “little effect”. Also, in series [2], the “resistance against oseltamivir caused by the mutation His-274->Tyr” value is reported as “high resistance”. The “effect of the mutation Arg-292->Lys on oseltamivir resistance” value in series [3] is “smaller effect”.
